# Test results published in patent publication US10987319B2, “TFEB activator C1 ameliorates app and tau pathology and rescues cognitive deficits in neurodegenerative diseases” (Hong Kong Baptist University, priority 2018, dated 2021).
# Assays:
# Assay type in all cases: in vivo
# [1] = test system: Aβ plaques; test: Immunohistochemistry of Aβ plaques (4G8 antibody), 3×Tg mice; settings: 50 mg/kg oral 7 months
# Experimental: (§1) Homozygous 3×Tg mice (APP KM670/671NL (Swedish), MAPT P301L, PSEN1 M146V) were produced in Hong Kong Baptist University animal house and maintained at 23±2° C. temperature, 60±15% relative humidity with free access to food and water ad libitum.
# Brain sections (30 μm) were cut on a microtome and stored at 4° C. in PBS+0.1% sodium azide. Sections were permeabilized for 10 min with cold PBS containing 0.5% Triton X-100 and blocked with 3% bovine serum albumin for 1 h at room temperature.
# [2] = test system: APP, APP CTFs, Aβ, LC3-II; test: Western blotting of brain tissue, 5×FAD mice
# Experimental: 5×FAD male mice were inbred with wild-type (WT, C57/BL6) female mice to produce heterozygous offspring. Offspring were genotyped to select 5×FAD (APP KM670/671NL (Swedish), APP I716V (Florida), APP V717I (London), PSEN1 M146L (A>C), PSEN1 L286V) gene mutations mice.
# (§2) Brain tissues were lysed with RIPA buffer (TBS with 1% NP-40, 1% sodium deoxycholic acid, 0.1% SDS, and protease phosphatase inhibitor cocktails) and centrifuged at 15,000 RPM for 30 min. Supernatant is collected and the pellets were further lysed with 2% SDS in RIPA buffer. Protein concentration was estimated by BCA assay. […] Protein chemiluminescence signal was detected by using ECL kit and quantified using ImageJ software.
# [3] = Pharmacokinetic study in mice, oral (brain and blood levels by LC/MS/MS); settings: male, mouse, C57BL/6 mice, oral 10 mg/kg, brain
# [4] = test system: APP, CTFs, phosphorylated Tau, total Tau, TFEB, LC3-II; test: Western blotting of hippocampus, female 3×Tg mice; settings: 50 mg/kg oral 7 months
# Experimental: as §1, §2
# [5] = test system: 5×FAD mice; test: Contextual fear conditioning; settings: 50 mg/kg oral daily 4 months, P<0.05
# Experimental: Male 5×FAD mice were purchased from Jackson laboratories (Stock number 006554) and maintained at 23±2° C. temperature, 60±15% relative humidity with free access to food and water ad libitum. 5×FAD male mice were inbred with wild-type (WT, C57/BL6) female mice to produce heterozygous offspring. Offspring were genotyped to select 5×FAD (APP KM670/671NL (Swedish), APP I716V (Florida), APP V717I (London), PSEN1 M146L (A>C), PSEN1 L286V) gene mutations mice. Two months old WT and 5×FAD mice (male and female, n=10-14 per group) were treated daily with vehicle (1% sodium carbonyl methylcellulose [CMC-Na; Sigma-Aldrich, C5678]), curcumin analogue C1 (5 mg/kg, 10 mg/kg) or curcumin (50 mg/kg; Sigma-Aldrich, 08511) suspended in 1% CMC-Na by oral gavage for 4 months.
# Contextual fear conditioning (CFC) was used to evaluate the fear memory reconsolidation of 5×FAD mice after treatment. The experiment was conducted 30 min after the drug treatment in ANY maze fear conditioning system under licensed ANY maze tracking system connected to a Windows XP computer. A digital camera was installed on each chamber and signals were sent to the computer for analysis. The experiments were conducted in two sound proof chambers. All the experiments were conducted with continuous 40 units of white noise and 40 lux white light. During training, mice were allowed to explore the platform for 2.5 min and then received 3 repeated footshock cycles (30 s) at 30 s intervals, each started with a cue tone (28 s, 1500 Hz) and ended by a footshock ([…], 2 s). On the second day the mice were allowed to explore the platform for 3 min followed by a cue tone (30 s, 1500 Hz) without footshock, and the freezing time was recorded. Contextual fear memory formation and the subsequent remote memory stabilization were evaluated by scoring freezing index (the absence of all but respiratory movement).
# [6] = test system: 3×Tg mice; test: Open-field test; settings: 3×Tg mice, 50 mg/kg oral 7 months
# Experimental: Homozygous 3×Tg mice (APP KM670/671NL (Swedish), MAPT P301L, PSEN1 M146V) were produced in Hong Kong Baptist University animal house and maintained at 23±2° C. temperature, 60±15% relative humidity with free access to food and water ad libitum. Seven months old WT (129/SvJ, n=6 for male mice; n=10 for female mice) and 3×Tg mice (n=6 for male mice; n=10 for female mice) were treated daily with vehicle (1% CMC-Na; Sigma-Aldrich, C5678]), curcumin analogue C1 (2.5 mg/kg, 5 mg/kg, 10 mg/kg) or curcumin (50 mg/kg; Sigma-Aldrich, 08511) suspended in 1% CMC-Na by oral gavage for 7 months. 3×Tg mice were treated with the indicated compounds for 7 months and then the open-field test was performed to evaluate the exploratory behavior in novel environment. The experiment was conducted 30 min after last dosing time. Mice placed in the center of an empty open field (25 cm×25 cm) were allowed to explore the environment for 5 min without any external disturbance. Ethnovision XT software was used to measure the patterns of movement, time spent in the center and margin, velocity, distance traveled as indicators of agility and exploration.
# [7] = test system: 3×Tg mice; test: Morris-water maze; settings: 50 mg/kg oral 7 months
# Experimental: Homozygous 3×Tg mice (APP KM670/671NL (Swedish), MAPT P301L, PSEN1 M146V) were produced in Hong Kong Baptist University animal house and maintained at 23±2° C. temperature, 60±15% relative humidity with free access to food and water ad libitum. Seven months old WT (129/SvJ, n=6 for male mice; n=10 for female mice) and 3×Tg mice (n=6 for male mice; n=10 for female mice) were treated daily with vehicle (1% CMC-Na; Sigma-Aldrich, C5678]), curcumin analogue C1 (2.5 mg/kg, 5 mg/kg, 10 mg/kg) or curcumin (50 mg/kg; Sigma-Aldrich, 08511) suspended in 1% CMC-Na by oral gavage for 7 months. 3×Tg mice were treated with the indicated compounds for 7 months and Morris-water maze (MWM) was used to evaluate the spatial learning memory. MWM is a circular water (21±1° C.) container with 1 meter diameter. Animals were pre-quarantined and acclimatized to the experimenting room at least 1 week before the start of the experiment. The experiment was started with one day visual platform trial. Each mouse underwent 4 visible platform trails (each trial 60 seconds) with different platform placement, positioned above the water level. Hidden platform training was conducted after mixing a non-toxic paint in the water. Mice were trained for 6 continuous days, each day composed of different session with 4 hidden platform trials (each trial 60 seconds). Each session was designed with randomized animal introduction pattern into the water maze with unchanged platform position. Each trial was conducted with 30 min inter-trial interval and provided with external cues. To assess the long term spatial memory retrieval a probe trial (60 seconds) was conducted 24 h after the last training session. During probe trial water maze was divided into 4 quadrants. The hidden platform in the target quadrant was removed after determining its location. Ethnovision XT software was used to observe and record the swimming pattern. During hidden platform training sessions, time spent to find the platform was taken as a parameter to evaluate memory acquisition. In probe trial percentage of time spent in the target quadrant compared to the other 3 quadrants was calculated.
# [8] = 5×FAD mice, male and female, 50 mg/kg oral 4 months
structure (smiles),measurement,setting,value
"COc1cc(/C=C/C(=O)CC(=O)/C=C/c2ccc(O)c(OC)c2)ccc1O [curcumin, Curcumin, reference compound]",Aβ load,[1],no significant reduction
same,LC3-II levels in brain (autophagy enhancement),[2]; [8],increase in LC3-II levels
same,levels of A3 in brain,[2]; [8],significantly reduced
same,levels of APP CTFs in brain,[2]; [8],significantly reduced
same,Fl-APP levels in brain,"[2]; female 5×FAD mice, oral 4 months",reduced Fl-APP levels
same,Tmax,[3],1 h
same,Cmax,[3]; read-out: maximum concentration (Cmax) in the brain,73.77 ± 0.24 ng/g
same,CTFs,[4],no significant reduction
same,"levels of phosphorylated Tau (PHF1, AT8)",[4]; hippocampus,significantly decreased
same,freezing index (memory reconsolidation) vs vehicle,[5],significant memory reconsolidation
same,improvement in the open field test,[6],no significant improvement
same,"percentage of time spent in the target quadrant, probe trial, vs vehicle",[7],significantly increased
